A short description of data set [1]: In vitro release profile of cloxacillin benzathine by direct dialysis in PBS:PEG and PBS:milk. It counts as physicochemical. The conditions noted are these: 37° C.; PBS:PEG vs PBS:milk. Here is the method: The evaluation of the release profile in vitro of the cloxacillin benzathine from the nanocarriers of reservoir type was performed according to the direct dialysis technique in two different release environments. Dialysis bags were inserted in containers containing a buffered saline solution and 1% polyethylene glycol 300 (PBS:PEG) or a buffered saline containing 1% of skimmed milk (PBS:milk) under 37° C. with moderate stirring. […] In pre-defined lapses, aliquots were removed and the environment was re-added with the same volume withdrawn. Right after, the samples were prepared and the supernatant dosed.

A short description of data set [2]: Degradation of the drug by HPLC during the dissolution test at pH 7.4. It counts as physicochemical. The conditions noted are these: until 540 minutes of test. The protocol:
In this work, the dissolution was conducted in pH 7.4 for it is about the pH of the milk of animals with mastitis (Gruet et al., 2001).

In the case of `Cc1onc(-c2ccccc2Cl)c1C(=O)N[C@@H]1C(=O)N2[C@@H]1SC(C)(C)[C@@H]2C(=O)O` [CLOXB, cloxacillin benzathine], the “release depending on the environment (1% PEG vs 1% milk), in words” value in data set [1] is given as “release was bigger in environment containing 1% of PEG”. For the same molecule, the “degradation of the drug” value in data set [2] is given as “no degradation”.

Source of the values: patent US10098840B2, “Nanoparticulate composition containing antibiotics for intramammary administration in animals” (priority 2010, dated 2018).
